Source: ChEMBL document CHEMBL1128459, “Characterization of potent and selective antagonists at postsynaptic 5-HT1A receptors in a series of N4-substituted arylpiperazines” (J Med Chem, 1995)

Assays:
[1] = target: 5-hydroxytryptamine receptor 1A (Rattus norvegicus) (UniProt P19327); assay: Ki ratio measured as the Ki values of dopamine receptor to that of 5-hydroxytryptamine 1A receptor
[2] = target: 5-hydroxytryptamine receptor 1A (Rattus norvegicus) (UniProt P19327); assay: Ki ratio measured as the Ki values of dopamine receptor to that of 5-hydroxytryptamine 1A receptor receptor.

Chain of 5-hydroxytryptamine receptor 1A (Rattus norvegicus) (P19327 whole entry, looked up): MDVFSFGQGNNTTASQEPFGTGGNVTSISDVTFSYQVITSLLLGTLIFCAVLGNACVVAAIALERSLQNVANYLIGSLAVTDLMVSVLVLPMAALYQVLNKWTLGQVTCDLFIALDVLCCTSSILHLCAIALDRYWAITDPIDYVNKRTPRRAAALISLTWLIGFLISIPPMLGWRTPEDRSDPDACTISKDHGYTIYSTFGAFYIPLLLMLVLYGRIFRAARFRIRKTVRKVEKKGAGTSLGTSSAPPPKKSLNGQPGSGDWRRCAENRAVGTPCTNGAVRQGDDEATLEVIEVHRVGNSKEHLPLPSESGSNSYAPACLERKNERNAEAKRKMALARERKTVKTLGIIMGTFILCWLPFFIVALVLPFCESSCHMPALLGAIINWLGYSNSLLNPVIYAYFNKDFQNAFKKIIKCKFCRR

SMILES | Ki ratio [1] | Ki ratio [2]
COc1cc2c(cc1OC)C(CCN1CCN(c3cccc4c3OCCO4)CC1)CC2 (stereo unspecified) | 83.4 | –
COc1ccccc1N1CCN(C[C@@H](C(=O)NC(C)(C)C)c2ccccc2)CC1 | – | 12
c1ccc2c(c1)CC2CCN1CCN(c2cccc3c2OCCO3)CC1 (stereo unspecified) | – | 79.4
c1ccc2c(c1)CC(N1CCN(c3cccc4c3OCCO4)CC1)C2 | – | 195
Clc1cccc2c1CC2CCN1CCN(c2cccc3c2OCCO3)CC1 (stereo unspecified) | 26.9 | –
c1ccc2c(c1)CC(N1CCN(c3cccc4c3OCCCO4)CC1)C2 | 51.3 | –
